Where two headings read alike, the source gives them in different places.

Data set [1] is described as follows: PHB4082 IP, IV Study (cyclodextrin/PEG/tween vehicle). It counts as in vivo, C57BL/6 mice. Conditions: both sexes, C57BL/6, mouse; for concentration at 2 h / concentration at 4 h: 10 mg/kg. The method, then:
C57BL/6 mice (8-weeks of age and ˜25 g weight) were weighed before injection and divided into groups of two male and female mice per cage. PHB4082 was dissolved in 5% DMSO/95% of 1:1 [(65% v/v of 25% w/v 2-hydroxypropyl-3-cyclodextrin (Cayman Chemical) dissolved in 20% EtOH, 30% v/v Poly(ethylene glycol)-400 (Sigma Aldrich 202398), 5% v/v Tween 80 (Fluka 59924)):MilliQ water] to create a 2 mg/mL solution. The same formulation without PHB4082 was used as a vehicle control. The solution was sterilized using a […] Steriflip filter unit (Thomas Scientific 1189Q46). Mice were dosed IP, and IV routes of administration and euthanized by CO2 asphyxiation for 3 min at 2 and 4 h after administration. To ensure that the vehicle was well-tolerated, four mice for each timepoint were treated with vehicle and euthanized 4 h and 24 h after administration. ˜0.5 mL of blood was collected via cardiac puncture and immediately put in K3 EDTA microtubes ([…] 41.1504.105) and kept on ice. Organs were harvested, placed in Eppendorf tubes, and frozen on dry ice. Blood samples were centrifuged for 10 min at 2,100×g at 4° C., then plasma was transferred to a clean tube and frozen on dry ice. Organ samples were weighed and placed in hard tissue homogenizing tubes (Omni International 19-628) and a volume of DEPC-treated nuclease-free water (IBI Scientific IB42200) was added to make a 500 mg/mL solution and homogenized using the Omni Bead Ruptor 4 at speed 5 for 30 seconds. Compound was extracted from plasma or organ homogenate by adding 900 μL acetonitrile to 100 μL plasma or organ homogenate. Samples were mixed by vortexing and allowed to extract overnight at 4° C. prior to mixing for at least 5 min by rotating at room temperature, vortexing, and sonicating for at least 30 second prior to centrifugation for 10 min at 4,000×g and 4° C. The supernatant was then transferred to a glass vial and analyzed by UPLC-MS described below. The base peak chromatogram was integrated and quantified by standard curve concurrently ran.
To determine whether PHB4082 accumulated in brain preferentially over plasma, the log10(Brain/Plasma) ratio was calculated for each time-point with a log10(Brain/Plasma) >0 indicating preferential accumulation in brain over plasma. We observed that PHB4082 did slightly accumulate in brain over plasma as time progressed (FIG. 21B); however, at the time-point where PHB4082 preferentially accumulated in brain, the difference in concentration in the brain compared to plasma was low, indicated by the near 0 log values.

Data set [2] can be described thus: Plasma stability, mouse plasma (Table 1). The format is in vitro ADME.
Data set [3] is described as follows: Microsomal stability, human liver microsomes (Table 1). It counts as in vitro ADME. Conditions: liver microsomes; Human: Pooled, 50 donors; read-out: Microsomal Stability t1/2 (converted). (In general: Liver microsomes are a subcellular fraction often used to study metabolism.)
A short description of data set [4]: Microsomal stability, mouse liver microsomes (Table 1). The format is in vitro ADME, Mouse: CD1. Conditions: CD1, mouse, liver microsomes, Mouse: CD1; read-out: Microsomal Stability t1/2. The procedure: Each compound (1 μM) is incubated with mouse plasma, for 4 hours at 37° C., with shaking at 100 rpm. The concentration of compound in the buffer and plasma chambers is determined using LC-MS/MS. Metabolism of each compound is predicted using Sites of Metabolism (Schrodinger Suite), which combines intrinsic reactivity analysis (Hammett-Taft) with induced fit docking against 2C9, 2D6 and 3A4. This approach identifies 90% of known metabolism sites and has a false positive rate of 17%. The in vitro metabolic stability of each compound in mouse liver microsomes is determined. Pooled mouse liver microsomes are prepared and stored at −80° C. until needed. […]

Data set [5] can be described thus: Plasma stability, human (Table 1). The format is in vitro ADME.
A short description of data set [6]: Microsomal stability, pig (Table 1). The format is in vitro ADME. The note with it: liver microsomes; Pig: Göttingen Minipig; read-out: Microsomal Stability t1/2.
Data set [7] is described as follows: Microsomal stability, dog (Table 1). It counts as in vitro ADME. The note with it: Dog: Beagle. The method, then:
Each compound (1 μM) is incubated with mouse plasma, for 4 hours at 37° C., with shaking at 100 rpm. The concentration of compound in the buffer and plasma chambers is determined using LC-MS/MS. Metabolism of each compound is predicted using Sites of Metabolism (Schrodinger Suite), which combines intrinsic reactivity analysis (Hammett-Taft) with induced fit docking against 2C9, 2D6 and 3A4. This approach identifies 90% of known metabolism sites and has a false positive rate of 17%. The in vitro metabolic stability of each compound in mouse liver microsomes is determined. Pooled mouse liver microsomes are prepared and stored at −80° C. until needed. Compound stability in liver microsomes is measured at 0, 15, 30, 45 and 60 minutes in duplicate, using LC-MS/MS analysis.

Data set [8] can be described thus: Microsomal stability, rat (Table 1). It counts as in vitro ADME. Conditions: liver microsomes; Rat: Sprague Dawley; read-out: Microsomal Stability t1/2 (converted).
Where [9] appears, read: brain, IP Administration, read-out: [PHB4082]brain.
Setting [10] is: brain, IV Administration, read-out: [PHB4082]brain.
Setting [11] is: plasma, IP Administration, read-out: [PHB4082]plasma.
[12] abbreviates: plasma, IV Administration, read-out: [PHB4082]plasma.

In data set [1] (brain and plasma, other: intraperitoneally and intravenously, 10 mg/kg intraperitoneally and intravenously), `Cc1noc(-c2ccc(NC3CCCCC3)c(NC3CCCCC3)c2)n1` [PHB4082, N1,N2-dicyclohexyl-4-(3-methyl-1,2,4-oxadiazol-5-yl)benzene-1,2-diamine] had a log10 Kp (brain/plasma) of less than 0. The concentration at 2 h in data set [1] (setting [9]) stood at 114 ± 21 nM; in data set [1] (setting [10]), 557 ± 245 nM; in data set [1] (setting [12]), 634 ± 359 nM; in data set [1] (setting [11]), 957 ± 693 nM. The concentration at 4 h in data set [1] (setting [9]) is 99 ± 62 nM; in data set [1] (setting [10]) it was 176 ± 76 nM; in data set [1] (setting [11]), 306 ± 379 nM; in data set [1] (setting [12]), 281 ± 284 nM.
Take `CCOC(=O)c1ccc(NC2CCCCC2)c(N)c1` [Fer-1, Ferrostatin-1, reference compound]: the “Plasma Stability at six hours (% remaining)” value in data set [2] is recorded as 0-2%; in data set [5], 100%. The half-life was 11.4 min in data set [3], 2.4 min in data set [4], 16.2 min in data set [6] and 3 min in data set [8]. Also, the “Microsomal Stability, % remaining t = 120” value in data set [7] is recorded as 49.5 ± 9.6%.

The values above are taken from patent publication US20240156790A1, “COMPOUNDS, COMPOSITIONS, AND METHODS FOR MODULATING FERROPTOSIS AND TREATING EXCITOTOXIC DISORDERS” (THE TRUSTEES OF COLUMBIA UNIVERSITY IN THE CITY OF NEW YORK, priority 2018, published 2024).
